Here are results for six compounds from patent US20120178766A1, “FUROPYRIMIDINEDIONE DERIVATIVES AS TRPAI MODULATORS” (priority 2009, published 2012).

Assay [1] addresses T1, rat TRPA1 (Rattus norvegicus, UniProt Q6RI86).
T1 construct: expressed in transfected cells; host or cells: CHO cells (Zeocin selection)
The experiment in a line: 45Calcium uptake assay: inhibition of AITC induced cellular uptake of radioactive calcium, rat TRPA1 expressing CHO cells. The format is cell-based. As to conditions: AITC 10 μM; for IC50: class symbols; for inhibition at 10 µM: 10.0 μM compound, read-out: rat TRPA1 Percentage inhibition at 10.0 μM; for inhibition at 1 µM: read-out: rat TRPA1 Percentage inhibition. In short, it runs like this: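 CHO cells expressing rat or human TRPA1 were pre-treated with compound for 10 min, then given AITC (30 μM human, 10 μM rat) plus 5 μCi/ml 45Ca2+ for 3 min; final DMSO 0.5%. Lysate radioactivity was counted by scintillation. IC50 came from nonlinear regression of concentration-response curves as % of maximal response.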

Assay [2] concerns the target T2, human TRPA1 (Homo sapiens, UniProt O75762).
T2 construct: expressed in transfected cells; host or cells: CHO cells (G-418 selection)
The experiment in a line: 45Calcium uptake assay: inhibition of AITC induced cellular uptake of radioactive calcium, human TRPA1 expressing CHO cells. It counts as cell-based. The following applies: AITC 30 μM; for inhibition at 1 µM: 1.0 μM compound, read-out: human TRPA1 Percentage inhibition at 1.0 μM; for inhibition at 10 µM: 10.0 μM compound, read-out: human TRPA1 Percentage inhibition at 10.0 μM; for IC50: class symbols. In short, it runs like this: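 CHO cells expressing TRPA1 were preincubated 10 min with compound (0.5% DMSO final), then given AITC (30 μM human, 10 μM rat) plus 5 μCi/ml 45Ca2+ for 3 min. Lysate radioactivity measured by scintillation; IC50 obtained by nonlinear regression of % maximal response without antagonist.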

T2 sequence (O75762 whole entry): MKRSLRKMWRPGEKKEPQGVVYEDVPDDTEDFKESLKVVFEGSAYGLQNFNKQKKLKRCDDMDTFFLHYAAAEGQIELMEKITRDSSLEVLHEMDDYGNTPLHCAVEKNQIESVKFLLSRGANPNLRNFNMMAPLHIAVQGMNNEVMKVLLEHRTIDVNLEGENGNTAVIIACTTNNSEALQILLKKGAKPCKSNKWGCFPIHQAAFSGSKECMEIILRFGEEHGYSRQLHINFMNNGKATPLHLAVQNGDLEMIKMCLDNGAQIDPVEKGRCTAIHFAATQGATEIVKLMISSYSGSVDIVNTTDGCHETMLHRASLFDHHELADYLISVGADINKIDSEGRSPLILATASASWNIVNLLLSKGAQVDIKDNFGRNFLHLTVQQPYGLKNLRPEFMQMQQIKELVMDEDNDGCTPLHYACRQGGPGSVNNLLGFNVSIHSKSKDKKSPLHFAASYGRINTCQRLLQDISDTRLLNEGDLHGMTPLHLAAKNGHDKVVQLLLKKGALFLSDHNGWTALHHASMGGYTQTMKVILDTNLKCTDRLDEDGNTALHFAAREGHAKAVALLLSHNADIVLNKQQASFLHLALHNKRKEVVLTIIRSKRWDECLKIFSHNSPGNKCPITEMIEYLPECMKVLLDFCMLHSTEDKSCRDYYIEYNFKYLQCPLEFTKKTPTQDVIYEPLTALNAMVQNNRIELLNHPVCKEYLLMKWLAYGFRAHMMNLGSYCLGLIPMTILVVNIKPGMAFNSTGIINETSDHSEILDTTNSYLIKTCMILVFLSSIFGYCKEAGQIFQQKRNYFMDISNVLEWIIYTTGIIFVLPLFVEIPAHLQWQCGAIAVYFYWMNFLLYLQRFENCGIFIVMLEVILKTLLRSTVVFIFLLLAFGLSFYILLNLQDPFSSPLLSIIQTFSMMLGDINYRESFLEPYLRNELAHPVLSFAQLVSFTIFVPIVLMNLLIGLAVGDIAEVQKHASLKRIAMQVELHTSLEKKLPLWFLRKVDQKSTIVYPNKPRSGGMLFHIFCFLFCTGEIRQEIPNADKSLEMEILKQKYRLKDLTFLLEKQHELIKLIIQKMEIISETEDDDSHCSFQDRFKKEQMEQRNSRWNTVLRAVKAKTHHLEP
T1 sequence (Q6RI86 whole entry): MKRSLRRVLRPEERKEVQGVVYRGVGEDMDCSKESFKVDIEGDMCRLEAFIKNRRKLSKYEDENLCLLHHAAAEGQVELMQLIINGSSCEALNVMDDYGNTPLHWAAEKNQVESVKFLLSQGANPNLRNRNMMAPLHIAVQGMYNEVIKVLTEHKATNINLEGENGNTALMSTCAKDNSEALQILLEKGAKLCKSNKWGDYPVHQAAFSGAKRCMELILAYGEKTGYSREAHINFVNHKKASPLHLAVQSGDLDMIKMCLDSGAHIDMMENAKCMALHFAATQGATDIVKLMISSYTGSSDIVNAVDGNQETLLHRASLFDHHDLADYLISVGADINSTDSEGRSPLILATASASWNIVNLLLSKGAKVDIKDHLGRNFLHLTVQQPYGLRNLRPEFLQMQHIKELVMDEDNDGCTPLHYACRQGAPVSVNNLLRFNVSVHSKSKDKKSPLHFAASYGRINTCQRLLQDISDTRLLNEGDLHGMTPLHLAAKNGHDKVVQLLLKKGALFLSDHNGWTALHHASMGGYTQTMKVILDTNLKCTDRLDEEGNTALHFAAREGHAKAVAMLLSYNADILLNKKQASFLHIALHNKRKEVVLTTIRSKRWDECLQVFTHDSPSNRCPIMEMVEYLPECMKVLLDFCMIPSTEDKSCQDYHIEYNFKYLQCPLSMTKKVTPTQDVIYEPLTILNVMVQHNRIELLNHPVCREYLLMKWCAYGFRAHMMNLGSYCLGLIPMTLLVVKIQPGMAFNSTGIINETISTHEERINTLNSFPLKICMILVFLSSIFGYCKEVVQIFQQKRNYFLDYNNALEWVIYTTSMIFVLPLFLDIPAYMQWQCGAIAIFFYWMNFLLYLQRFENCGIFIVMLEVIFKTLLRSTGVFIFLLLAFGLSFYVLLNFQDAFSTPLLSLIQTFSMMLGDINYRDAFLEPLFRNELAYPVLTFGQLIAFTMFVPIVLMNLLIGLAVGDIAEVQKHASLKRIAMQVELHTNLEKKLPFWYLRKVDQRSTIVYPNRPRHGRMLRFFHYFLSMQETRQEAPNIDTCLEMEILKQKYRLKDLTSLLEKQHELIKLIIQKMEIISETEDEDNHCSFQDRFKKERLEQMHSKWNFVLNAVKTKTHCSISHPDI

With `Cn1c(=O)c2c(CC(=O)Nc3nc(-c4cc(F)c(OCC(C)(C)C)c(F)c4)cs3)coc2n(C)c1=O` [Example 42, N1-{4-[3,5-Difluoro-4-(2,2-dimethylpropoxy)phenyl]-1,3-thiazol-2-yl}2-(1,3-dimethyl-2,4-dioxo-1,2,3,4-tetrahydrofuro[2,3-d]pyrimidin-5-yl)acetamide], the IC50 (usually the concentration that inhibits the measured activity by half) in assay [1] is less than 50 nM. In assay [2], the inhibition – broadly, the change of the read-out against control, counted positive when it falls – at 1 µM stood at 96.1%; the inhibition at 10 µM came out at 99.9%; the IC50 was less than 50 nM.
For the compound `Cn1c(=O)c2c(CC(=O)Nc3nc(-c4cc(Cl)c(OCC(C)(C)C)c(Cl)c4)cs3)coc2n(C)c1=O` [Example 43, N1-{4-[3,5-Dichloro-4-(2,2-dimethylpropoxy)phenyl]-1,3-thiazol-2-yl}-2-(1,3-dimethyl-2,4-dioxo-1,2,3,4-tetrahydrofuro[2,3-d]pyrimidin-5-yl)acetamide], in assay [1], the inhibition at 10 µM is 100%, the inhibition at 1 µM was found to be 89.2% and the IC50 was 50 to 100 nM. Also, in assay [2], the inhibition at 1 µM amounted to 99.2%, the inhibition at 10 µM amounted to 99.7% and the IC50 was less than 50 nM.
On to `Cn1c(=O)c2c(CC(=O)Nc3nc(-c4cc(F)c(OCC(C)(C)C)c(Cl)c4)cs3)coc2n(C)c1=O` [Example 44, N1-{4-[3-Chloro-5-fluoro-4-(2,2-dimethylpropoxy)phenyl]-1,3-thiazol-2-yl}-2-(1,3-dimethyl-2,4-dioxo-1,2,3,4-tetrahydrofuro[2,3-d]pyrimidin-5-yl)acetamide], for which, in assay [1], the inhibition at 10 µM was 99.2%, the inhibition at 1 µM worked out at 71% and the IC50 was less than 50 nM. Also, in assay [2], the inhibition at 1 µM is 100%, the inhibition at 10 µM worked out at 99.5% and the IC50 was less than 50 nM.
For `Cn1c(=O)c2c(CC(=O)Nc3nc(-c4cc(F)c(OCC(F)(F)F)c(F)c4)cs3)coc2n(C)c1=O` [Example 46, N1-{4-[3,5-Difluoro-4-(2,2,2-trifluoroethoxy)phenyl]-1,3-thiazol-2-yl}-2-(1,3-dimethyl-2,4-dioxo-1,2,3,4-tetrahydrofuro[2,3-d]pyrimidin-5-yl)acetamide], in assay [1], the inhibition at 10 µM turned out to be 99.5%, the inhibition at 1 µM came to 96.1% and the IC50 was in the range of 50 to 100 nM. In assay [2], the inhibition at 1 µM turned out to be 99.8%, the inhibition at 10 µM was found to be 100% and the IC50 is less than 50 nM.
On to `Cn1c(=O)c2c(CC(=O)Nc3nc(-c4cc(Cl)c(OCC(F)(F)F)c(Cl)c4)cs3)coc2n(C)c1=O` [Example 47, N1-{4-[3,5-Dichloro-4-(2,2,2-trifluoroethoxy)phenyl]-1,3-thiazol-2-yl}2-(1,3-dimethyl-2,4-dioxo-1,2,3,4-tetrahydrofuro[2,3-d]pyrimidin-5-yl)acetamide], for which, in assay [1], the inhibition at 10 µM is 100%, the inhibition at 1 µM came out at 86% and the IC50 was less than 50 nM. In addition, in assay [2], the inhibition at 1 µM is 99.2%, the inhibition at 10 µM is 99.8% and the IC50 was less than 50 nM.
Turning to `Cn1c(=O)c2c(CC(=O)Nc3nc(-c4cc(F)c(OCC(F)(F)F)c(Cl)c4)cs3)coc2n(C)c1=O` [Example 48, N1-{4-[3-Chloro-5-fluoro-4-(2,2,2-trifluoroethoxy)phenyl]-1,3-thiazol-2-yl}-2-(1,3-dimethyl-2,4-dioxo-1,2,3,4-tetrahydrofuro[2,3-d]pyrimidin-5-yl)acetamide], in assay [1], the inhibition at 10 µM turned out to be 99.2%, the inhibition at 1 µM is 99.6% and the IC50 was less than 50 nM. Besides, in assay [2], the inhibition at 1 µM turned out to be 96.6%, the inhibition at 10 µM stood at 95.1% and the IC50 was less than 50 nM.
